Measured values as given in PubChem BioAssay AID2060500 (Molecular Pharmacology Branch, DTP, NCI, 2025).
Where “and” joins values, the source holds several entries; their conditions need not be identical. Identical values can stand only once.

Tested on: 596521-263-R-J1-PDC complex spheroids, viability % of control
Experiment: Anticancer human tumor 596521-263-R-J1-PDC patient-derived soft tissue sarcoma cell line growth inhibition [GQUAD]
Conditions: for viability, T/C: stronger effect = lower value
From the text: DNA G-quadruplex Stabilizer Agents in Combinations in Complex Spheroids
A high-throughput screen of multi-cell type tumor spheroids was designed to identify active combinations of DNA G-quadruplex stabilizer agents and targeted small molecules. Complex spheroids include a stromal component modeled by human endothelial cells (HUVEC) and fibroblasts modeled by human mesenchymal stem cells (MSCs). The concentration ranges selected for each drug and investigational agent were based upon clinically achievable concentrations if the clinical Cmax of the agent was known.
Compounds. The drugs and investigational agents: pidnarulex (CX-5461; NSC782164), APTO-253 (NSC789042), BRACO-19 (NSC847499), peposertib (NSC802822), ceralasertib (NSC780249), elimusertib (NSC800525), camonsertib (NSC841442), AZD-1390 (NSC803789), olaparib (NSC753686), talazoparib (NSC767125), ART-558 (NSC835418), sotorasib (NSC818433), MRTX-1133 (NSC836407), SN-38 (NSC673596), topotecan (NSC609699), etoposide (NSC141540), doxorubicin (NSC123127), gemcitabine (NSC613327), 5-fluorouracil (NSC19893), paclitaxel (NSC125973), vemurafenib (NSC761431), panobinostat (NSC761190), R-306465 (JNJ-16241199; NSC773264), adavosertib (NSC754352), TP-3654 (NSC805149), carboplatin (NSC241240), KSQ-4279 (NSC840948), and staurosporine (NSC755774) were obtained from the National Cancer Institute (NCI) Developmental Therapeutics Program Chemical Repository (34). The FDA-approved anticancer drug set is available from the NCI Developmental Therapeutics Program. […] The stock solutions were prepared in dimethyl sulfoxide (DMSO, Sigma-Aldrich, St. Louis, MO, cat. D2650) at 800-fold the tested concentration and stored at -70 degrees C prior to their use. All drugs and investigational agents were tested over a range starting from a high concentration at or near the clinical Cmax and decreasing in half-log increments. If the clinical Cmax for an agent had not been determined, the highest concentration tested was 10 microM.
2.3 Cell Culture. All cells were maintained in an incubator at 37 degrees C and 5% CO2 with 95% humidity. The PDC lines were cultured according to standard operating procedures established by the NCI PDMR. All PDCs were thawed and cultured in Matrigel-coated flasks prepared with a working solution of 1X Ham's F-12 nutrient mix, without supplementation (Invitrogen, cat. 11765054), 100 U/mL penicillin-streptomycin (Invitrogen, cat. 15140122), and 2.5% Matrigel (Corning Inc., cat. 354248) for the first three passages. The 857933-349-R-J2-PDC line was cultured in 6C/Colon 1B media, which includes advanced DMEM/F-12 (Thermo Fisher Scientific, cat. 12634028), 10 mM HEPES (Thermo Fisher Scientific, cat. 15630080), 1X GlutaMAX supplement (Thermo Fisher Scientific, cat. 35050061), 0.1 mg/mL primocin (InvivoGen, cat. ant-pm-2), 10% defined fetal bovine serum, heat inactivated (HyClone Laboratories Inc., cat. SH30070.03HI), 50% L-WRN conditioned media (ATCC, cat. CRL-3276), 1.25 mM N-Acetyl-L-cysteine (Sigma-Aldrich, cat. A9165), 10 mM nicotinamide (Sigma-Aldrich, cat. N0636), 1X B-27 supplement (Thermo Fisher Scientific, cat. 17504044), 1X N-2 supplement (Thermo Fisher Scientific, cat. 17502048), 10 microM Y-27632 dihydrochloride (Tocris Bioscience, cat. 1254), and 50 ng/mL human EGF recombinant protein (Thermo Fisher Scientific, cat. PHG0311). The 485176-168-R4-J1-PDC line was cultured in Panc media, which includes all 6C/Colon 1B media components plus 100 ng/mL human FGF-10 (Thermo Fisher Scientific, cat. 100-26), 500 nM SB-431542 (Selleckchem, cat. S1067), and gastrin (Tocris, cat. 3006).
[…]
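Note: spheroids exposed to drugs for 7 days before viability reading.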

Which results are given for `Nc1ccn(C2OC(CO)C(O)C2(F)F)c(=O)n1` (stereo not drawn) + Cc1cnc(CNC(=O)c2c(=O)c3ccc(N4CCCN(C)CC4)nc3n3c2sc2ccccc23)cn1?
IC50 (curve of first compound, second compound 0.0316 µM): 78.7 nM; IC50 (curve of first compound, second compound 0.1 µM): 308 nM; IC50 (curve of first compound, second compound 0.316 µM): 68 nM; IC50 (curve of first compound, second compound 1 µM): 77.2 nM; IC50 (curve of first compound, second compound 3.16 µM): < 31.6 nM; IC50 (curve of first compound, second compound 10 µM): < 31.6 nM; viability, T/C (second compound 0.0316 µM, first compound 0.0316 µM): 58.3%; viability, T/C (second compound 0.0316 µM, first compound 0.1 µM): 44.5%; viability, T/C (second compound 0.0316 µM, first compound 0.316 µM): 49.4%; viability, T/C (second compound 0.0316 µM, first compound 1 µM): 51%; viability, T/C (second compound 0.0316 µM, first compound 3.16 µM): 47.4%; viability, T/C (second compound 0.0316 µM, first compound 10 µM): 46.8%; viability, T/C (second compound 0.1 µM, first compound 0.0316 µM): 60.1%; viability, T/C (second compound 0.1 µM, first compound 0.1 µM): 51%; viability, T/C (second compound 0.1 µM, first compound 0.316 µM): 53.3%; viability, T/C (second compound 0.1 µM, first compound 1 µM): 44.7%; viability, T/C (second compound 0.1 µM, first compound 3.16 µM): 38.6%; viability, T/C (second compound 0.1 µM, first compound 10 µM): 35.3%; viability, T/C (second compound 0.316 µM, first compound 0.0316 µM): 61.2%; viability, T/C (second compound 0.316 µM, first compound 0.1 µM): 43.9%; viability, T/C (second compound 0.316 µM, first compound 0.316 µM): 43.9%; viability, T/C (second compound 0.316 µM, first compound 1 µM): 49.8%; viability, T/C (second compound 0.316 µM, first compound 3.16 µM): 41.6%; viability, T/C (second compound 0.316 µM, first compound 10 µM): 41.8%; viability, T/C (second compound 1 µM, first compound 0.0316 µM): 59.6%; viability, T/C (second compound 1 µM, first compound 0.1 µM): 47.6%; viability, T/C (second compound 1 µM, first compound 0.316 µM): 42%; viability, T/C (second compound 1 µM, first compound 1 µM): 47.6%; viability, T/C (second compound 1 µM, first compound 3.16 µM): 52.2%; viability, T/C (second compound 1 µM, first compound 10 µM): 43%; viability, T/C (second compound 3.16 µM, first compound 0.0316 µM): 47.9%; viability, T/C (second compound 3.16 µM, first compound 0.1 µM): 41.9%; viability, T/C (second compound 3.16 µM, first compound 0.316 µM): 42.2%; viability, T/C (second compound 3.16 µM, first compound 1 µM): 40.2%; viability, T/C (second compound 3.16 µM, first compound 3.16 µM): 40.9%; viability, T/C (second compound 3.16 µM, first compound 10 µM): 42.6%; viability, T/C (second compound 10 µM, first compound 0.0316 µM): 47%; viability, T/C (second compound 10 µM, first compound 0.1 µM): 35.5%; viability, T/C (second compound 10 µM, first compound 0.316 µM): 38.9%; viability, T/C (second compound 10 µM, first compound 1 µM): 39.6%; viability, T/C (second compound 10 µM, first compound 3.16 µM): 42.7%; viability, T/C (second compound 10 µM, first compound 10 µM): 23.4%

Which viability, T/C (compound 0.000999 µM) does the source give for `Cn1ncnc1[C@H]1c2n[nH]c(=O)c3cc(F)cc(c23)N[C@@H]1c1ccc(F)cc1` here?
Its viability, T/C is 92.8% and 91% and 93.5%.

And the viability, T/C (compound 0.00316 µM)?
Its viability, T/C is 93.2% and 98.2% and 100%.

What about the viability, T/C (compound 0.00999 µM) of the same molecule?
Its viability, T/C is 93.6% and 94% and 101%.

What about the viability, T/C (compound 0.0316 µM) of the same molecule?
Its viability, T/C is 94.5% and 86.7% and 93.1%.

And the viability, T/C (compound 0.0999 µM)?
Its viability, T/C is 89.3% and 80.8% and 106%.

What about the viability, T/C (compound 0.316 µM) of the same molecule?
Its viability, T/C is 92.8% and 88% and 76.6%.

And the IC50 (curve of compound)?
Its IC50 is over 316 nM.

With `CCc1c2c(nc3ccc(O)cc13)-c1cc3c(c(=O)n1C2)COC(=O)[C@]3(O)CC` as the molecule, how does the viability, T/C (compound 0.000999 µM) read?
The viability, T/C was 62% and 58.6% and 64.2%.

And the viability, T/C (compound 0.00316 µM)?
Its viability, T/C is 58% and 49.7% and 56.6%.

And the viability, T/C (compound 0.00999 µM)?
The viability, T/C was 51.5% and 50.8% and 46.9%.

What about the viability, T/C (compound 0.0316 µM) of the same molecule?
The viability, T/C was 34.9% and 28.8% and 33.9%.

And the viability, T/C (compound 0.0999 µM)?
The viability, T/C was 19.2% and 15.7% and 20.2%.

And the viability, T/C (compound 0.316 µM)?
Its viability, T/C is 6.84% and 7.73% and 9.09%.

What about the IC50 (curve of compound) of the same molecule?
Its IC50 is 10.5 nM and 6.82 nM and 6.81 nM.

For `CC(C)(O)C1CCC(Nc2ccc3ncc(-c4cccc(C(F)(F)F)c4)n3n2)CC1` (stereo not drawn), which viability, T/C (compound 0.0316 µM) is on record?
The viability, T/C was 106% and 99.4% and 95.7%.

And the viability, T/C (compound 0.1 µM)?
Its viability, T/C is 98.4% and 97.7% and 91.8%.

What about the viability, T/C (compound 0.316 µM) of the same molecule?
Its viability, T/C is 103% and 93.5% and 85.9%.

And the viability, T/C (compound 1 µM)?
Its viability, T/C is 97.1% and 55.2% and 69.5%.

And the viability, T/C (compound 3.16 µM)?
Its viability, T/C is 108% and 10.6% and 16.7%.

And the viability, T/C (compound 10 µM)?
The viability, T/C was 84% and 18.1% and 15.5%.

What about the IC50 (curve of compound) of the same molecule?
Its IC50 is > 10000 nM and 1160 nM and 1540 nM.

`Cc1[nH]c2ccccc2c1CCNCc1ccc(/C=C/C(=O)NO)cc1` was tested. Which viability, T/C (compound 0.000999 µM) did it give?
The viability, T/C was 101% and 103% and 95.3%.

What about the viability, T/C (compound 0.00316 µM) of the same molecule?
Its viability, T/C is 90.3% and 84.7% and 95.6%.

And the viability, T/C (compound 0.00999 µM)?
The viability, T/C was 96.9% and 70% and 80.2%.

And the viability, T/C (compound 0.0316 µM)?
The viability, T/C was 96.4% and 54% and 57.8%.

What about the viability, T/C (compound 0.0999 µM) of the same molecule?
The viability, T/C was 101% and 27.6% and 35.7%.

What about the IC50 (curve of compound) of the same molecule?
Its IC50 is > 316 nM and 33.7 nM and 49.9 nM.

`CC1COCCN1c1cc(C2(O)CC3CCC(C2)O3)c2cnn(-c3ccn[nH]3)c2n1` (stereo not drawn) was tested. Which viability, T/C (compound 0.0316 µM) did it give?
The viability, T/C was 68.2% and 80.2% and 69%.

And the viability, T/C (compound 0.1 µM)?
Its viability, T/C is 66.9% and 48.7% and 53.4%.

And the viability, T/C (compound 0.316 µM)?
The viability, T/C was 39.5% and 49.8% and 44.3%.

What about the viability, T/C (compound 1 µM) of the same molecule?
Its viability, T/C is 32.1% and 33.8% and 33.2%.

What about the viability, T/C (compound 3.16 µM) of the same molecule?
The viability, T/C was 21.9% and 25.7% and 22.9%.

What about the viability, T/C (compound 10 µM) of the same molecule?
Its viability, T/C is 12.9% and 16.6% and 12.2%.

And the IC50 (curve of compound)?
The IC50 was 226 nM and 195 nM and 173 nM.

For `C=CC(=O)N1CCN(c2nc(=O)n(-c3c(C)ccnc3C(C)C)c3nc(-c4c(O)cccc4F)c(F)cc23)C(C)C1` (stereo not drawn), which viability, T/C (compound 0.0316 µM) is on record?
Its viability, T/C is 107% and 105% and 114%.

What about the viability, T/C (compound 0.1 µM) of the same molecule?
Its viability, T/C is 92.7% and 91.9% and 95.5%.

What about the viability, T/C (compound 0.316 µM) of the same molecule?
Its viability, T/C is 96.9% and 101% and 108%.

And the viability, T/C (compound 1 µM)?
Its viability, T/C is 114% and 120% and 118%.

What about the viability, T/C (compound 3.16 µM) of the same molecule?
Its viability, T/C is 96.2% and 97% and 113%.

What about the viability, T/C (compound 10 µM) of the same molecule?
The viability, T/C was 73.2% and 66.5% and 84.6%.

And the IC50 (curve of compound)?
The IC50 was over 10000 nM.
